Active and inactive are the calls of the source. The rule behind the calls is not given here.
Key:
SK-OV-3 = experiment: Cytotoxicity against human SK-OV-3 cells assessed as cell viability measured after 48 hrs by MTT assay; assay type: functional, cell-based; settings: SK-OV-3, 48 h
A2780 [1] = experiment: Induction of apoptosis in human A2780 cells assessed as apoptotic rate measured after 24 to 72 hrs by Annexin V-FITC/PI flow cytometry; assay type: functional, cell-based; settings: dose 2-8 nM, time 24-72 hrs
A2780 [2] = experiment: Induction of apoptosis in human A2780 cells assessed as increase in cleaved caspase 3 level measured after 12 to 48 hrs by Western blot analysis; assay type: functional, cell-based; settings: dose 5-20 nM, time 12-48 hrs
[3] = target: MAP kinase p38 (Homo sapiens) (UniProt O15264+Q15759+Q16539+P53778); experiment: Activation of p38 in human A2780 cells assessed as increase phosphorylation of p38 at 5 to 20 nM measured after 24 hrs by Western blot analysis; assay type: cell-based; settings: filed as activator, dose 5-20 nM
[4] = target: Cellular tumor antigen p53 (Homo sapiens) (UniProt P04637); experiment: Activation of p53 in human A2780 cells assessed as increase phosphorylation of p38 at 5 to 20 nM measured after 24 hrs by Western blot analysis; assay type: cell-based; settings: filed as activator, dose 5-20 nM
A2780 [5] = experiment: Induction of apoptosis in human A2780 cells assessed as necrotic cells at 800 nM measured after 24 hrs by Annexin V-FITC/PI flow cytometry (reference value: 0.18%); assay type: functional
A2780 [6] = experiment: Induction of apoptosis in human A2780 cells assessed as viable cells at 800 nM measured after 24 hrs by Annexin V-FITC/PI flow cytometry (reference value: 96.1%); assay type: functional; settings: read-out: Activity
A2780 [7] = experiment: Induction of apoptosis in human A2780 cells assessed as late apoptotic cells in presence of bafilomycin A1 at 800 nM measured after 24 hrs by Annexin V-FITC/PI flow cytometry (reference value: 1.58%); assay type: functional
A2780 [8] = experiment: Induction of apoptosis in human A2780 cells assessed as early apoptotic cells in presence of bafilomycin A1 at 800 nM measured after 24 hrs by Annexin V-FITC/PI flow cytometry (reference value: 2.17%); assay type: functional
A2780 [9] = experiment: Inhibition of colony formation in human A2780 cells in presence of SB203580 at 0.25 nM incubated for 48 hrs by crystal violet staining based colony counting method; assay type: functional, cell-based
A2780 [10] = experiment: Induction of apoptosis in human A2780 cells assessed as viable cells in presence of SB203580 at 8 nM measured after 24 to 72 hrs by Annexin V-FITC/PI flow cytometry (reference value: 94.2%); assay type: functional; settings: time 24-72 hrs
A2780 [11] = experiment: Induction of apoptosis in human A2780 cells assessed as necrotic cells at 8 nM measured after 24 to 72 hrs by Annexin V-FITC/PI flow cytometry (reference value: 0.39%); assay type: functional; settings: time 24-72 hrs
A2780 [12] = experiment: Induction of apoptosis in human A2780 cells assessed as necrotic cells in presence of SB203580 at 8 nM measured after 24 to 72 hrs by Annexin V-FITC/PI flow cytometry (reference value: 0.39%); assay type: functional; settings: time 24-72 hrs
A2780 [13] = experiment: Cytotoxicity against human A2780 cells assessed as cell viability in presence of p53 SiRNA 1 measured after 48 hrs by MTT assay; assay type: functional, cell-based
A2780 [14] = experiment: Induction of apoptosis in human A2780 cells assessed as necrotic cells at 4 nM measured after 24 hrs by Annexin V-FITC/PI flow cytometry (reference value: 0.39%); assay type: functional
A2780 [15] = experiment: Induction of apoptosis in human A2780 cells assessed as late apoptotic cells in presence of p53 SiRNA 1 at 4 nM measured after 24 hrs by Annexin V-FITC/PI flow cytometry (reference value: 2.54%); assay type: functional
A2780 [16] = experiment: Induction of apoptosis in human A2780 cells assessed as late apoptotic cells in presence of p53 SiRNA 2 at 4 nM measured after 24 hrs by Annexin V-FITC/PI flow cytometry (reference value: 2.54%); assay type: functional
A2780 [17] = experiment: Induction of cleaved PARP level in human A2780 cells at 5 to 20 nM measured after 24 hrs by Western blot analysis; assay type: functional, cell-based; settings: dose 5-20 nM
A2780 [18] = experiment: Reduction in p62 expression in human A2780 cells in presence of autophagy inhibitor bafilomycin A1 at 5 to 20 nM measured after 24 hrs by Western blot analysis; assay type: functional, cell-based; settings: dose 5-20 nM
A2780 [19] = experiment: Induction of cleaved PARP level in human A2780 cells in presence of autophagy inhibitor bafilomycin A1 at 5 to 20 nM measured after 24 hrs by Western blot analysis; assay type: functional, cell-based; settings: dose 5-20 nM
A2780 [20] = experiment: Induction of cell cycle arrest in human A2780 cells assessed as accumulation of cells at G1 phase at 1 nM measured after 24 hrs by PI staining based ell Cycle Analysis Kit (KeyGEN) (reference value: 53.9%); assay type: functional
A2780 [21] = experiment: Induction of cell cycle arrest in human A2780 cells assessed as accumulation of cells at S phase at 1 nM measured after 24 hrs by PI staining based ell Cycle Analysis Kit (KeyGEN) (reference value: 10%); assay type: functional
A2780 [22] = experiment: Induction of cell cycle arrest in human A2780 cells assessed as accumulation of cells at G2 phase at 1 nM measured after 24 hrs by PI staining based ell Cycle Analysis Kit (KeyGEN) (reference value: 22.2%); assay type: functional
A2780 [23] = experiment: Induction of cell cycle arrest in human A2780 cells assessed as accumulation of cells at S phase at 2 nM measured after 24 hrs by PI staining based ell Cycle Analysis Kit (KeyGEN) (reference value: 10%); assay type: functional
A2780 [24] = experiment: Induction of cell cycle arrest in human A2780 cells assessed as accumulation of cells at G2 phase at 2 nM measured after 24 hrs by PI staining based ell Cycle Analysis Kit (KeyGEN) (reference value: 22.2%); assay type: functional
A2780 [25] = experiment: Induction of cell cycle arrest in human A2780 cells assessed as accumulation of cells at G1 phase at 4 nM measured after 24 hrs by PI staining based ell Cycle Analysis Kit (KeyGEN) (reference value: 53.9%); assay type: functional
A2780 [26] = experiment: Induction of cell cycle arrest in human A2780 cells assessed as accumulation of cells at G1 phase in presence of SB203580 at 4 nM measured after 24 hrs by PI staining based Cell Cycle Analysis Kit (KeyGEN) (reference value: 54.2%); assay type: functional

Chain of Cellular tumor antigen p53 (Homo sapiens) (P04637 whole entry, looked up): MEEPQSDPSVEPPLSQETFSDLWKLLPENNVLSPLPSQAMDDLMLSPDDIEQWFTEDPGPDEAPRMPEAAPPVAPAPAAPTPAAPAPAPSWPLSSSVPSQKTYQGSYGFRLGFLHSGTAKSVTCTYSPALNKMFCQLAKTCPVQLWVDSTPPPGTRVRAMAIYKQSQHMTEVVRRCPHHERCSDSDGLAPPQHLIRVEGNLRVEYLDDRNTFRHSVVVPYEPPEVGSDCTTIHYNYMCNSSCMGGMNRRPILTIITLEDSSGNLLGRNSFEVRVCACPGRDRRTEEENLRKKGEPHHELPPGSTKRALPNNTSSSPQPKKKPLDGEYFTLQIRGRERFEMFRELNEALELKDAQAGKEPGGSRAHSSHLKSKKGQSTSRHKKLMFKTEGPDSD

For `CC(C)[C@]12O[C@H]1[C@@H]1O[C@]13[C@]1(O[C@H]1C[C@H]1C4=C(CC[C@@]13C)C(=O)OC4)[C@@H]2O` [TRIPTOLIDE], which IC50 (SK-OV-3) is on record?
The IC50 was 803 nM.

And the Activity (A2780 [1])?
The Activity was “Dose-Dependent Effect”.

What about the Activity (A2780 [2]) of the same molecule?
The Activity was “Dose-Dependent Effect”.

And the Activity [3]?
The Activity was “Active”.

What about the Activity [4] of the same molecule?
Its Activity is “Active”.

What about the Activity (A2780 [5]) of the same molecule?
Its Activity is 2.33%.

What about the viability at 0.8 µM (A2780 [6]) of the same molecule?
Its viability at 0.8 µM is 74%.

And the Activity (A2780 [7])?
Its Activity is 3.96%.

And the Activity (A2780 [8])?
The Activity was 5.02%.

And the inhibition (A2780 [9])?
The inhibition was “inactive”.

What about the Activity (A2780 [10]) of the same molecule?
Its Activity is 69%.

And the Activity (A2780 [11])?
Its Activity is 5.59%.

What about the Activity (A2780 [12]) of the same molecule?
The Activity was 5.87%.

What about the Activity (A2780 [13]) of the same molecule?
The Activity was “inactive”.

And the Activity (A2780 [14])?
The Activity was 9.88%.

What about the Activity (A2780 [15]) of the same molecule?
Its Activity is 14.3%.

What about the Activity (A2780 [16]) of the same molecule?
Its Activity is 14.4%.

What about the Activity (A2780 [17]) of the same molecule?
The Activity was “Active”.

What about the Activity (A2780 [18]) of the same molecule?
The Activity was “inactive”.

And the Activity (A2780 [19])?
The Activity was “inactive”.

What about the Activity (A2780 [20]) of the same molecule?
Its Activity is 67.3%.

And the Activity (A2780 [21])?
The Activity was 14.4%.

What about the Activity (A2780 [22]) of the same molecule?
The Activity was 15.4%.

What about the Activity (A2780 [23]) of the same molecule?
Its Activity is 19.9%.

And the Activity (A2780 [24])?
The Activity was 15.3%.

And the Activity (A2780 [25])?
The Activity was 68.9%.

And the Activity (A2780 [26])?
The Activity was 48.7%.

From ChEMBL document CHEMBL5608179, “Triptonide induces apoptosis and inhibits the proliferation of ovarian cancer cells by activating the p38/p53 pathway and autophagy” (Bioorg Med Chem, 2024)
